From article PMC11187126, “Structure and dynamics of the pyroglutamylated RF-amide peptide QRFP receptor GPR103” (Nature Communications, 2024)
Where two headings read alike, the source gives them in different places. No end group written: not given here.

Target: T1, GPR103 F322^7.43A (Homo sapiens, UniProt Q96P65, F322A)
T1 construct: we used human full-length QRFPR-encoding plasmids; expressed in transfected cells; host or cells: HEK293 cells (HEK293A in the flow cytometry section), pCAGGS vector
T1 sequence (Q96P65 1-431 F322A): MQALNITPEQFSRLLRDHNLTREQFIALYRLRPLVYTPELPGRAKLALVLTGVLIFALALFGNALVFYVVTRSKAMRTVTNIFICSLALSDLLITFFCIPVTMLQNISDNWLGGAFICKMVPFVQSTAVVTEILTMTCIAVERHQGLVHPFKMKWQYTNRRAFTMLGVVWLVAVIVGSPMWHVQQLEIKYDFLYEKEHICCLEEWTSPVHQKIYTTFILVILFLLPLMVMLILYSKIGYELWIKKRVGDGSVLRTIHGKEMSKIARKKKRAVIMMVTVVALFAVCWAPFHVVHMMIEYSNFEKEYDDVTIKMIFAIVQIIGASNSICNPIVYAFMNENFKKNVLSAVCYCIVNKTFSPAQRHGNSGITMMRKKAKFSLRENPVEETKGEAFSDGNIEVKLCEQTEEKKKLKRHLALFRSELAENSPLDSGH
Assay: TGFα shedding assay; Exp. level WT (1:50)
Format: cell-based
Description: For the TGFα shedding assay and the flow cytometry analysis, we used human full-length QRFPR-encoding plasmids. Specifically, GPR103 was N-terminally modified with an HA signal sequence followed by a FLAG epitope and then a flexible linker ([…]; the FLAG epitope is underlined) and inserted into the pCAGGS vector. Plasmid encoding GPR103 mutants were generated using Quickchange Site-Directed Mutagensis kit (Agilent).
The TGFα shedding assay was performed as described previously with minor modifications. Plasmid transfection was performed in a 6-well plate with a mixture of 500 ng (per well in a 6-well plate) AP-TGFα-encoding plasmid and 200 ng GPR103-encoding plasmid. After 1-day culture, the transfected cells were harvested by trypsinization, pelleted by centrifugation at 190 × g for 5 min, and washed once with 5 mM HEPES (pH 7.4)-containing Hank’s Balanced Salt Solution (HBSS). After centrifugation, the cells were resuspended in 8 mL of the HEPES-containing HBSS. The cell suspension was seeded in a 96-well culture plate (cell plate) at a volume of 90 μL (per well hereafter) and incubated in a 37 °C incubator with 5% CO2 for 30 min. […] After spinning the cell plates at 190 × g for 2 min, 80 μL of conditioned media was transferred to an empty 96-well plate (conditioned media (CM) plate). Then, 80 μL of AP reaction solution (10 mM p-nitrophenylphosphate (p-NPP), 120 mM Tris-HCl (pH 9.5), 40 mM NaCl, and 10 mM MgCl2) was dispensed into the cell plates and the CM plates. Absorbance at 405 nm of the plates was measured using a microplate reader (SpectraMax 340 PC384, Molecular Devices) before and after 1-h incubation at room temperature. Ligand-induced AP-TGFα release was calculated by subtracting spontaneous AP-TGFα release signal from ligand-induced AP-TGFα release signal. The AP-TGFα release signals were fitted to a four-parameter sigmoidal concentration–response curve, using the Prism 10 software (GraphPad Prism). For each replicate experiment, the pEC50 parameter (negative logarithmic values of EC50 values) of the individual GPR103 mutants were normalized to that of the wild-type GPR103 performed in parallel, and resulting ∆pEC50 values were used to denote ligand response activity of the mutants. […]
Exp. le vel: WT (1:5 0)Exp. le vel: WT (1:5 0)Exp. le vel: WT (1:5 0)Exp. le vel: WT (1:2 0)Exp. le vel: WT (1:2 0)Exp. le vel: WT (1:1 0) […]
L1 4N - t e r mA F2 5N - t e r mA I 2 6N - t e r mA Y 2 9N - t e r mA C 9 82 .5 7A T10 22 .6 1A Exp . l eve l: WT (1 :5)Exp . l evel : >WT (1 :1)Exp. le vel: WT (1:2 0)Exp. le vel: WT (1:2 0)Exp. le vel: WT (1:5 0)Exp . l eve l: WT (1 :1) […]
Exp. le vel: WT (1:1 0)Exp. le vel: WT (1:2 0) C 1 1 83 .2 5AExp. le vel: WT (1:5 0)Exp. le vel: WT (1:5 0)Exp. le vel: WT (1:2 0)Exp . l eve l: WT (1 :5) […]
Exp. le vel: WT (1:5 0)Exp. le vel: WT (1:1 0)Exp. le vel: WT (1:5 0) E203ECL2AExp . l evel : >WT (1 :1)Exp. le vel: WT (1:5 0)Exp. le vel: WT (1:5 0) […]
Exp . l eve l: WT (1 :1) F28Exp. le vel: WT (1:5 0) C 2 8 56 .4 7AExp. le vel: WT (1:2 0) WExp. le vel: WT (1:2 0) F28Exp. le vel: WT (1:5 0)Exp . l evel : >WT (1 :1) […]
Exp. le vel: WT (1:5 0)Exp. le vel: WT (1:5 0) C 3 2 77 .4 8AExp . l eve l: WT (1 :5)Exp . l evel : >WT (1 :1)Exp . l evel : >WT (1 :1) […]
Suppl eme nt ary Figure 1 | Mutational analysis of GPR103. […]
mutants. Data are presented as mean values ± SEM, normally n=3-5; dots), each performed in triplicate. b-d Cell-surface expression (b) and QRFP26-in-duced activation of GPR103 (c, d) were analyzed by the flow cytometry and the TGFα shedding assay, respectively. From the concentration–response curves (a), Emax (c) and ΔpEC50 (d) values relative to the wild type were calculated. Colors in the mutant bars indicate an expression level matching to that of titrated wild type. Statistical analyses were performed using the ordinary one-way ANOVA followed by Dunnett tests with the expression-matched […]

Emax (Exp. #1): 46.65 % WT
Emax (Exp. #2): 35.03 % WT
Emax (Exp. #3): 42.29 % WT
Emax (mean, read-out: Emax): 41.3%
EC50 (n = 3): 0.0245 µM
Emax (n = 3, read-out: Emax): 42.7 ± 2.8%
Substance: TSGPLGNLAEELNGYSRKKGGFSFRF-NH2 [QRFP26]
